Structures are written as SMILES.

T1 sequence (P01116 1-188 isoform P01116-2 G12C): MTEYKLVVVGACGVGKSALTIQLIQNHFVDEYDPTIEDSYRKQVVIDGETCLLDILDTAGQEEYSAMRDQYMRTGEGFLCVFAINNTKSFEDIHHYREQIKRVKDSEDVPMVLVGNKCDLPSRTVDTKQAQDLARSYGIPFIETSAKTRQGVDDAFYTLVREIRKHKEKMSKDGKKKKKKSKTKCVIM

This experiment has as its target T1, KRasG12C (Homo sapiens, UniProt P01116, G12C).
T1 construct: biotin (biotinylated); made in house
In words: KRasG12C functional assay (HTRF nucleotide exchange / Raf RBD binding). As to conditions: GDP loaded biotinylated KRasG12C, samples incubated 4 hrs, FRET readout; single experiment or average of two or more. The format is biochemical. As to the method: KRasG12C Functional Assay
All enzyme and substrate solutions were prepared in assay buffer containing 20 mM HEPES (pH 7.5), 5 mM MgCl2, 150 mM NaCl, and 0.01% Tween 20. […] In a separate mix 20 nM GST-Raf Ras binding domain (GST-Raf RBD, purified in house) and 4 μg/ml anti-GST XL665 antibody (Cisbio) was prepared in assay buffer containing 50 mM Potassium Fluoride and 0.05 mg/ml BSA and equilibrated for 4 hours before adding 0.6 μM Guanosine 5′-[γ-thio]triphosphate (GTPγS, Sigma) and 0.08 μM SOS (purified in house). 5 μl of the GST-RAF RBD mix was then dispensed into each well of the assay plate. […] This is detected simultaneously via the specific binding interaction between active GTPγS KRas^G12C with GST-Raf RBD which brings the europium and XL665 into close proximity enabling an increased FRET signal to be detected on a Pherastar (BMG) plate reader equipped with the HTRF filter module. […] IC50 values were calculated from normalised dose-response response FRET data curve fitted in Genedata screener (Basel, Switzerland).
Turning to `C=CC(=O)N1CCN2c3c(cnc4c(OC)c(-c5c(O)cccc5F)c(Cl)cc34)OC[C@H]2C1` (single isomer, unassigned) [Compound 23], the IC50 was determined as 4200 nM.

In turn, `C=CC(=O)N1CCN2c3c(cnc4c(F)c(-c5c(C)ccc6[nH]cnc56)c(Cl)cc34)N(C)C(=O)[C@H]2C1` (single isomer, unassigned) [Compound 25] registered an IC50 of 28 nM. This IC50 is about 150-fold lower than that of the compound before. The figure for `C=CC(=O)N1CCN2c3c(cnc4c(F)c(-c5c(C)ccc6[nH]cnc56)c(Cl)cc34)N(C)C(=O)[C@H]2C1` (single isomer, unassigned) [Compound 26] is 446 nM; for `C=CC(=O)N1C[C@@H]2C(=O)N(C)c3cnc4c(F)c(-c5c(C)ccc6[nH]cnc56)c(Cl)cc4c3N2C[C@H]1C` (single isomer, unassigned) [Compound 27] it is 8800 nM. Regarding `C=CC(=O)N1C[C@@H]2C(=O)N(C)c3cnc4c(F)c(-c5c(C)ccc6[nH]cnc56)c(Cl)cc4c3N2C[C@H]1C` (single isomer, unassigned) [Compound 28], the IC50 stood at 3 nM.

`C[C@@H]1CN2c3c(cnc4c(F)c(-c5c(O)cccc5F)c(Cl)cc34)N(C)C(=O)[C@H]2CN1C(=O)/C=C/CN(C)C` (single isomer, unassigned) [Compound 29] registered an IC50 of 25 nM. Against the preceding compound, the IC50 is about 8.3-fold higher. The result for `C=CC(=O)N1C[C@@H]2C(=O)Nc3cnc4c(F)c(-c5c(O)cccc5F)c(Cl)cc4c3N2C[C@H]1C` (single isomer, unassigned) [Compound 30] reads 4600 nM. Turning to `C=CC(=O)N1C[C@@H]2C(=O)Nc3cnc4c(F)c(-c5c(O)cccc5F)c(Cl)cc4c3N2C[C@H]1C` (single isomer, unassigned) [Compound 31], the IC50 was 4 nM. This IC50 lies about 1200-fold lower than the previous one. Consider `C=CC(=O)N1CCN2c3c(cnc4cc(-c5c(O)cccc5F)c(Cl)cc34)N(C)C(=O)C2(C)C1` (single isomer, unassigned) [Compound 32, 11-Chloro-10-(2-fluoro-6-hydroxyphenyl)-4a,6-dimethyl-3-(prop-2-enoyl)-2,3,4,4a-tetrahydro-1H-pyrazino[1′,2′:4,5]pyrazino[2,3-c]quinolin-5(6H)-one], for which the IC50 came to 2200 nM. The figure for `C=CC(=O)N1CCN2c3c(cnc4c(F)c(-c5c(F)cccc5CO)c(Cl)cc34)N(C)C(=O)[C@H]2C1` (single isomer, unassigned) [Compound 34] is 9800 nM; for `C=CC(=O)N1CCN2c3c(cnc4c(F)c(-c5c(F)cccc5CO)c(Cl)cc34)N(C)C(=O)[C@H]2C1` (single isomer, unassigned) [Compound 35] it is 133 nM; for `C[C@@H]1CN2c3c(cnc4c(F)c(-c5c(O)cccc5F)c(Cl)cc34)OC[C@H]2CN1C(=O)/C=C/CN(C)C` (single isomer, unassigned) [Compound 36] it is 28100 nM.

As to `C[C@@H]1CN2c3c(cnc4c(F)c(-c5c(O)cccc5F)c(Cl)cc34)OC[C@H]2CN1C(=O)/C=C/CN(C)C` (single isomer, unassigned) [Compound 37], the IC50 was found to be 21 nM. `C=CC(=O)N1C[C@@H]2COc3cnc4c(C)c(-c5c(O)cccc5F)c(Cl)cc4c3N2C[C@H]1C` (single isomer, unassigned) [Compound 41]: the IC50 was determined as 1500 nM. Consider `C=CC(=O)N1CCN2c3c(cnc4c(C)c(-c5c(O)cccc5F)c(C)cc34)N(C)C(=O)[C@H]2C1` (single isomer, unassigned) [Compound 43], for which the half-maximal inhibitory concentration (IC50) was above 100000 nM. Consider `C=CC(=O)N1CCN2c3c(cnc4c(C)c(-c5c(O)cccc5F)c(C)cc34)N(C)C(=O)[C@H]2C1` (single isomer, unassigned) [Compound 44], for which the IC50 came to 142 nM.

In turn, `C=CC(=O)N1CCN2c3c(cnc4cc(-c5c(F)ccc6cc[nH]c(=O)c56)c(Cl)cc34)OC[C@H]2C1` (single isomer, unassigned) [Compound 46] had an IC50 of 1100 nM. Compared with the last compound, the IC50 is about 7.7-fold higher. For the compound `C=CC(=O)N1CCN2c3c(cnc4c(F)c(-c5c(C)ccc6[nH]c(=O)oc56)c(Cl)cc34)OC[C@H]2C1` (single isomer, unassigned) [Compound 47], the IC50 amounted to 31 nM.

The term IC50 denotes the midpoint of a concentration-inhibition curve. Low readings indicate higher potency, high ones lower potency.
